Here are results for three compounds from patent US20100168143A1, “QUINAZOLINE DERIVATIVES” (ASTRAZENECA AB, priority 2006, published 2010).

Some results are limits rather than exact numbers.

The target in one assay is aurora B kinase (Homo sapiens, UniProt Q96GD4). The experiment in a line: In vitro aurora B kinase inhibition test. The format is biochemical. As to conditions: aurora B-INCENP enzyme; 33P-ATP filter assay, 60 minutes; read-out: IC50 (50% inhibition of enzyme activity), aurora B. An excerpt:
(b) In Vitro Aurora B Kinase Inhibition Test
This assay determines the ability of a test compound to inhibit serine-threonine kinase activity. DNA encoding aurora B may be obtained by total gene synthesis or by cloning. This DNA may then be expressed in a suitable expression system to obtain polypeptide with serine-threonine kinase activity. In the case of aurora B, the coding sequence was isolated from cDNA by polymerase chain reaction (PCR) and cloned into the pFastBac system in a manner similar to that described above for aurora A (i.e. to direct expression of a 6-histidine tagged aurora B protein).
For the large scale expression of aurora B kinase activity, Sf21 insect cells were grown at 28° C. in TC100 medium supplemented with 10% foetal calf serum (Viralex) and 0.2% F68 Pluronic (Sigma) on a Wheaton roller rig at 3 r.p.m. When the cell density reached 1.2×10^6 cells ml^−1 they were infected with plaque-pure aurora B recombinant virus at a multiplicity of infection of 1 and harvested 48 hours later. All subsequent purification steps were performed at 4° C. […]

For assay [1], the system named is phosphohistone H3 levels in drug-resistant MCF7-ADR human breast tumour cells. Nature of the assay: In vitro drug-resistant cell phenotype and substrate phosphorylation assay (MCF7-ADR). As to conditions: NCI/ADR-RES, 24 hours of treatment, read-out: EC50 for inhibition of phosphohistone H3 levels. The format is cell-based. As to the method:
(d) In Vitro Drug-Resistant Cell Phenotype and Substrate Phosphorylation Assay.
This assay is used to determine the cellular effects of compounds on drug-resistant MCF7-ADR human breast tumour cells in vitro.
Compounds typically cause inhibition of levels of phosphohistone H3 and an increase in the nuclear area of treated cells.
0.8×10^4 MCF7-ADR cells per well were plated in 100 μl DMEM media (containing 10% FCS (foetal calf serum) and 1% glutamine) in costar 96 well plates and left overnight at 37° C. and 5% CO2 to adhere.
All other procedures are identical to those for the above assay using SW620 cells.
The compounds of the invention generally have EC50 values for inhibition of phosphohistone H3 levels of […], particularly 0.5 nM to 1 μM and more particularly 0.5 nM to 0.5 μM.

Chain of aurora B kinase (Q96GD4 whole entry): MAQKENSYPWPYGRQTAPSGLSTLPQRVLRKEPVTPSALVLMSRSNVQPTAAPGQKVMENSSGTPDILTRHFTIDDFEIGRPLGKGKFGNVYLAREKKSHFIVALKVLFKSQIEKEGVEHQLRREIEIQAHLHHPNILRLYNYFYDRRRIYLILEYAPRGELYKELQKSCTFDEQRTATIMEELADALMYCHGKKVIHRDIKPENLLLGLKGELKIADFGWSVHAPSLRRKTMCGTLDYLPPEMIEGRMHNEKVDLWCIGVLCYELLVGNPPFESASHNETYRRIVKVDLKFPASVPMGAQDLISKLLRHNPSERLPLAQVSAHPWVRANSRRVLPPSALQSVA
Chain of aurora B kinase (Q9NQS7 826-918 partner limits assumed): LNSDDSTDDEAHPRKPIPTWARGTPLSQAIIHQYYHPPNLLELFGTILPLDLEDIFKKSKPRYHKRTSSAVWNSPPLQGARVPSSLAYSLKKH

Consider `COc1cc(OC[C@H]2CCCCN2)c2c(Nc3cnn(CC(=O)Nc4cccc(F)c4F)c3)ncnc2c1` [compound 2, N-(2,3-difluorophenyl)-2-[4-({7-methoxy-5-[(2R)-piperidin-2-ylmethoxy]quinazolin-4-yl}amino)-1H-pyrazol-1-yl]acetamide], for which the IC50 (in general, the concentration that inhibits the measured activity by half) at aurora B kinase was found to be 1.4 nM. In addition, the EC50 (usually the midpoint of the concentration-response curve) in assay [1] came to 20 nM.

For the compound `COc1cc(OC[C@H]2CCCN2)c2c(Nc3cnn(CC(=O)Nc4cccc(F)c4F)c3)ncnc2c1` [Prior art compound (I), reference compound], in assay [1], the EC50 is 120 nM.

As for `CCOc1cc(OC[C@H]2CCCCN2)c2c(Nc3cnn(CC(=O)Nc4cccc(F)c4F)c3)ncnc2c1` [compound 1], the IC50 at aurora B kinase is 1.4 nM. Moreover, the EC50 in assay [1] is less than 1 nM.
